Values belong to the molecule of their own block, whether it stands above or below them.
Assays:
Type in all cases: cell-based
Brd4 [1] = biological target: T1, Brd4 (Homo sapiens, UniProt O60885); assay: Test Example 3: HeLa cells, Western blot Brd4/actin (Testing Method C); design: endogenous in cells; host or cells: HeLa; settings: 24 hours, 1 or less = degradation promoted
Description: Test Example 3: Evaluation Using HeLa Cell (Testing Method C)
(§1) HeLa cells were inoculated to Dulbecco's Modified Eagle Medium (DMEM) and cultured for 24 hours. A test compound (specifically, compounds of Examples 47 to 52, 59 and 60) was added thereto at the final concentration shown in Table 2, followed by incubation for 24 hours under conditions of 37° C./5% CO2. The cells were washed with PBS three times and treated with a cell lysis solution containing a proteolytic enzyme inhibitor to obtain a cell extract. The cell extract was subjected to SDS-PAGE. After the electrophoresis, Brd4, FKBP12 or MetAP2 and actin were detected by Western blot. The ratio of the Brd4, FKBP12 or MetAP2/actin value of the drug-treated cells to the Brd4, FKBP12 or MetAP2/actin value of a control group in drug-untreated cells was regarded as an activity value. A value of 1 or less represents that degradation of Brd4, FKBP12 or MetAP2 was promoted.

EmGFP-HaloTag = assay: Test Example 2: HeLa cells transiently overexpressing EmGFP-HaloTag, Western blot GFP/actin (Testing Method B); settings: 24 hours, 1 or less = degradation promoted
Description: Test Example 2: Evaluation Using Cell Transiently Overexpressing EmGFP-HaloTag (Testing Method B)
HeLa cells were inoculated to Dulbecco's Modified Eagle Medium (DMEM) and cultured for 24 hours. Cells overexpressing EmGFP-HaloTag were obtained by transfection with a plasmid pCMV-EmGFP-HaloTag encoding EmGFP-HaloTag. On the next day, a test compound (specifically, compounds of Examples 8, 12, 16, 21 to 23, 28, 30 and 31) was added thereto at the final concentration shown in Table 2, followed by incubation for 24 hours under conditions of 37° C./5% CO2. The cells were washed with PBS three times and treated with a cell lysis solution containing a proteolytic enzyme inhibitor to obtain a cell extract. The cell extract was subjected to SDS-PAGE. After the electrophoresis, GFP and actin were detected by Western blot. The ratio of the GFP/actin value of the drug-treated cells to the GFP/actin value of a control group in drug-untreated cells was regarded as an activity value. A value of 1 or less represents that degradation of EmGFP-HaloTag was promoted.

Brd4 [2] = biological target: T1, Brd4; assay: Test Example 4: A549 cells, Western blot Brd4/actin (Testing Method D); design: endogenous in cells; settings: BRD4, 1 uM, 24 hours, 1 or less = degradation promoted
Description: Test Example 4: Evaluation Using A549 Cell (Testing Method D)
as §1, with “A549” for “HeLa”, “57” for “47 to 52, 59”, “58)” for “60)”, “Brd4” for “Brd4, FKBP12 or MetAP2”, “Brd4/actin” for “Brd4, FKBP12 or MetAP2/actin”

Structure (SMILES): Cc1sc2c(c1C)C(c1ccc(Cl)cc1)=N[C@@H](CC(=O)NCCOCCOCCOCCNC(=O)c1cccc(-c3nc4c(=O)[nH]c(N)nc4n3Cc3ccc(F)cc3)c1)c1nnc(C)n1-2 [Example 48, 3-(2-Amino-9-(4-fluorobenzyl)-6-oxo-6,9-dihydro-1H-purin-8-yl)-N-(14-((6S)-4-(4-chlorophenyl)-2,3,9-trimethyl-6H-thieno[3,2-f][1,2,4]triazolo[4,3-a][1,4]diazepin-6-yl)-13-oxo-3,6,9-trioxa-12-azatetradec-1-yl)benzamide]
Activity value (Brd4/actin of drug-treated cells relative to drug-untreated control) (Brd4 [1]; BRD4, 10 uM): 0.8

Structure (SMILES): CC(=O)N[C@@H](CSc1nc2c(=O)[nH]c(N)nc2n1C1CCCCC1)C(=O)NCCOCCOCCOCCOCCOCCCCCCCl [Example 28, N^2-acetyl-S-(2-amino-9-cyclohexyl-6-oxo-6,9-dihydro-1H-purin-8-yl)-N-(21-chloro-3,6,9,12,15-pentaoxahenicos-1-yl)-L-cysteinamide]
Activity value (GFP/actin of drug-treated cells relative to drug-untreated control) (EmGFP-HaloTag; 1 uM): 0.4

Structure (SMILES): CC(=O)N[C@@H](CSc1nc2c(=O)[nH]c(N)nc2n1Cc1ccccc1F)C(=O)NCCOCCOCCOCCOCCOCCCCCCCl [Example 22, N^2-acetyl-S-(2-amino-9-(2-fluorobonzvl)-6-oxo-6,9-dihydro-1H-purin-8-yl)-N-(21-chloro-3,6,9,12,15-pentaoxahenicos-1-yl)-L-cysteinamide]
Activity value (GFP/actin of drug-treated cells relative to drug-untreated control) (EmGFP-HaloTag; 10 uM): 0.7

Structure (SMILES): Nc1nc2c(nc(CCCOCCOCCOCCOCCOCCOCCCCCCCl)n2Cc2ccc(F)cc2)c(=O)[nH]1 [Example 31, 2-Amino-8-(25-chloro-4,7,10,13,16,19-hexaoxapentacos-1-yl)-9-(4-fluorobenzyl)-1,9-dihydro-6H-purin-6-one]
Activity value (GFP/actin of drug-treated cells relative to drug-untreated control) (EmGFP-HaloTag; 1 uM): 0.4

Structure (SMILES): CC(=O)N[C@@H](CSc1nc2c(=O)[nH]c(N)nc2n1Cc1cccc(F)c1)C(=O)NCCOCCOCCOCCOCCOCCCCCCCl [Example 23]
Activity value (GFP/actin of drug-treated cells relative to drug-untreated control) (EmGFP-HaloTag; 1 uM): 0.7

Structure (SMILES): Nc1nc2c(nc(C#CCOCCOCCOCCOCCOCCOCCCCCCCl)n2Cc2ccc(F)cc2)c(=O)[nH]1 [Example 16, 2-Amino-8-(25-chloro-4,7,10,13,16,19-hexaoxapentacos-1-yn-1-yl)-9-(4-fluorobenzyl)-1,9-dihydro-6H-purin-6-one]
Activity value (GFP/actin of drug-treated cells relative to drug-untreated control) (EmGFP-HaloTag; 10 uM): 0.4

Structure (SMILES): Cc1sc2c(c1C)C(c1ccc(Cl)cc1)=N[C@@H](CC(=O)NCCCOCCOCCOCCCNc1nc3c(=O)[nH]c(N)nc3n1Cc1ccc(F)cc1)c1nnc(C)n1-2 [Example 58, N-(3-(2-(2-(3-((2-Amino-9-(4-fluorobenzyl)-6-oxo-6,9-dihydro-1H-purin-8-yl)amino)propoxy)ethoxy)ethoxy)propyl)-2-((6S)-4-(4-chlorophenyl)-2,3,9-trimethyl-6H-thieno[3,2-f][1,2,4]triazolo[4,3-a][1,4]diazepin-6-yl)acetamide]
Activity value (Brd4/actin of drug-treated cells relative to drug-untreated control) (Brd4 [2]): 0.8

Now from value to molecule:

Activity value (Brd4/actin of drug-treated cells relative to drug-untreated control) (Brd4 [1]; BRD4, 10 uM): 0.8
Structure (SMILES): Cc1sc2c(c1C)C(c1ccc(Cl)cc1)=N[C@@H](CC(=O)NCCOCCOCCOCCNC(=O)/C=C/c1nc3c(=O)[nH]c(N)nc3n1Cc1ccc(F)cc1)c1nnc(C)n1-2 [Example 52, (2E)-3-(2-Amino-9-(4-fluorobenzyl)-6-oxo-6,9-dihydro-1H-purin-8-yl)-N-(14-((6S)-4-(4-chlorophenyl)-2,3,9-trimethyl-6H-thieno[3,2-f][1,2,4]triazolo[4,3-a][1,4]diazepin-6-yl)-13-oxo-3,6,9-trioxa-12-azatetradec-1-yl)acrylamide]

Activity value (Brd4/actin of drug-treated cells relative to drug-untreated control) (Brd4 [1]; BRD4, 1 uM): 0.8
Structure (SMILES): CC(=O)N[C@@H](CSc1nc2c(=O)[nH]c(N)nc2n1Cc1ccc(C)cc1)C(=O)NCCOCCOCCOCCNC(=O)C[C@@H]1N=C(c2ccc(Cl)cc2)c2c(sc(C)c2C)-n2c(C)nnc21 [Example 49, N^2-Acetyl-S-(2-amino-9-(4-methylbenzyl)-6-oxo-6,9-dihydro-1H-purin-8-yl)-N-(14-((6S)-4-(4-chlorophenyl)-2,3,9-trimethyl-6H-thieno[3,2-f][1,2,4]triazolo[4,3-a][1,4]diazepin-6-yl)-13-oxo-3,6,9-trioxa-12-azatetradec-1-yl)-L-cysteinamide]

Activity value (Brd4/actin of drug-treated cells relative to drug-untreated control) (Brd4 [1]; BRD4, 1 uM): 0.2
Structure (SMILES): CC(=O)N[C@@H](CSc1nc2c(=O)[nH]c(N)nc2n1Cc1ccc(Cl)cc1)C(=O)NCCOCCOCCOCCNC(=O)C[C@@H]1N=C(c2ccc(Cl)cc2)c2c(sc(C)c2C)-n2c(C)nnc21 [Example 50, N^2-Acetyl-S-(2-amino-9-(4-chlorobenzyl)-6-oxo-6,9-dihydro-1H-purin-8-yl)-N-(14-((6S)-4-(4-chlorophenyl)-2,3,9-trimethyl-6H-thieno[3,2-f][1,2,4]triazolo[4,3-a][1,4]diazepin-6-yl)-13-oxo-3,6,9-trioxa-12-azatetradec-1-yl)-L-cysteinamide]

Activity value (Brd4/actin of drug-treated cells relative to drug-untreated control) (Brd4 [1]; BRD4, 1 uM): 0.4
Structure (SMILES): Cc1sc2c(c1C)C(c1ccc(Cl)cc1)=N[C@@H](CC(=O)NCCOCCOCCOCCNC(=O)c1nc3c(=O)[nH]c(N)nc3n1Cc1ccc(F)cc1)c1nnc(C)n1-2 [Example 47, 2-Amino-N-(14-((6S)-4-(4-chlorophenyl)-2,3,9-trimethyl-6H-thieno[3,2-f][1,2,4]triazolo[4,3-a][1,4]diazepin-6-yl)-13-oxo-3,6,9-trioxa-12-azatetradec-1-yl)-9-(4-fluorobenzyl)-6-oxo-6,9-dihydro-1H-purine-8-carboxamide]

Activity value (Brd4/actin of drug-treated cells relative to drug-untreated control) (Brd4 [1]; BRD4, 1 uM): 0.6
Structure (SMILES): CC(=O)N[C@@H](CSc1nc2c(=O)[nH]c(N)nc2n1Cc1ccc(F)cc1)C(=O)NCCOCCOCCOCCNC(=O)C[C@@H]1N=C(c2ccc(Cl)cc2)c2c(sc(C)c2C)-n2c(C)nnc21 [Example 51, N^2-Acetyl-S-(2-amino-9-(4-fluorobenzyl)-6-oxo-6,9-dihydro-1H-purin-8-yl)-N-(14-((6S)-4-(4-chlorophenyl)-2,3,9-trimethyl-6H-thieno[3,2-f][1,2,4]triazolo[4,3-a][1,4]diazepin-6-yl)-13-oxo-3,6,9-trioxa-12-azatetradec-1-yl)-L-cysteinamide]

Activity value (Brd4/actin of drug-treated cells relative to drug-untreated control) (Brd4 [2]): 0.9
Structure (SMILES): CC(=O)N[C@@H](CSc1nc2c(=O)[nH]c(N)nc2n1Cc1ccc(F)cc1)C(=O)NCCCOCCOCCOCCCNC(=O)C[C@@H]1N=C(c2ccc(Cl)cc2)c2c(sc(C)c2C)-n2c(C)nnc21 [Example 57, N^2-Acetyl-S-(2-amino-9-(4-fluorobenzyl)-6-oxo-6,9-dihydro-1H-purin-8-yl)-N-(1-((6S)-4-(4-chlorophenyl)-2,3,9-trimethyl-6H-thieno[3,2-f][1,2,4]triazolo[4,3-a][1,4]diazepin-6-yl)-2-oxo-7,10,13-trioxa-3-azahexadecan-16-yl)-L-cysteinamide]
